Source: patent publication US8598154B2 (Corcept Therapeutics, Inc., priority 2010, dated 2013)

Tests used:
[1] = molecular target: T1, glucocorticoid receptors (GR) in SW1353/MMTV-5 cells (Homo sapiens, UniProt P04150); experiment: GR functional assay using SW1353/MMTV-5 cells (MMTV-luciferase reporter); type: cell-based
T1 construct: contains endogenous glucocorticoid receptors; endogenous in cells; host or cells: SW1353/MMTV-5 (human chondrosarcoma, stably transfected with the pMAMneo-Luc reporter only)
T1 sequence (P04150 1-777): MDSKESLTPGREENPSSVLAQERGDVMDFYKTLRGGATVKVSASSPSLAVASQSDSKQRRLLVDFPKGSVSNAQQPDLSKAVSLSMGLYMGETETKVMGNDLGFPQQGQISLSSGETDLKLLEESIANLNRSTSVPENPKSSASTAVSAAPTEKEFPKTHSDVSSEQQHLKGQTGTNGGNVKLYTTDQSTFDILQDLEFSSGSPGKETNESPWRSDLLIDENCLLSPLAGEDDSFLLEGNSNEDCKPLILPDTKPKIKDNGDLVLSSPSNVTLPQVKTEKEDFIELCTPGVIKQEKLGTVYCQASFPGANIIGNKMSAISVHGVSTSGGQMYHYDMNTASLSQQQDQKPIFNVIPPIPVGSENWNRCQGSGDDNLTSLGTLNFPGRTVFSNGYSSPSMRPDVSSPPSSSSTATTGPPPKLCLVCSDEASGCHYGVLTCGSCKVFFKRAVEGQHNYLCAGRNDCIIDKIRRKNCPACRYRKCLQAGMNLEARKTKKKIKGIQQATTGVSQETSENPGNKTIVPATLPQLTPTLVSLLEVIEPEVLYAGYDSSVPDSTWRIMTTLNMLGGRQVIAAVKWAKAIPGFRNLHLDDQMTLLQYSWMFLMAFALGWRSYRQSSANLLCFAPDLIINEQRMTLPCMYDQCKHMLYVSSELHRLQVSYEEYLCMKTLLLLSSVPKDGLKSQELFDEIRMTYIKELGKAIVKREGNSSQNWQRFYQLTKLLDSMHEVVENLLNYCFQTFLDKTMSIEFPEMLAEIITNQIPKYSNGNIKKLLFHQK
Method: SW1353/MMTV-5 is an adherent human chondrosarcoma cell line that contains endogenous glucocorticoid receptors. It was transfected with a plasmid (pMAMneo-Luc) encoding firefly luciferase located behind a glucocorticoid-responsive element (GRE) derived from a viral promoter (long terminal repeat of mouse mammary tumor virus). A stable cell line SW1353/MMTV-5 was selected with geneticin, which was required to maintain this plasmid.
SW1353/MMTV-5 cells were distributed in 96-well plates and incubated in medium (without geneticin) for 24 hrs (in the absence of CO2).

[2] = molecular target: T2, Human Recombinant Glucocorticoid Receptor (Homo sapiens, UniProt P04150); experiment: Glucocorticoid receptor binding displacement assay with 3H-dexamethasone; settings: displacement of 2.5 nM 3H-dexamethasone; Ki from IC50 by Cheng-Prusoff; read-out: GR Binding Ki
T2 construct: This GR was a full-length steroid hormone receptor likely to be associated with heat-shock and other endogenous proteins; host or cells: baculovirus-infected insect cells
T2 sequence (P04150 1-777): T1 sequence (P04150 1-777)
Method: The source of the receptor was recombinant baculovirus-infected insect cells. This GR was a full-length steroid hormone receptor likely to be associated with heat-shock and other endogenous proteins.
For the Primary Screen, test compounds were tested at 1 μM in duplicate. These compounds were diluted from 10 mM stock in 100% DMSO. After dilution to 100 μM, 5 μl were added to 245 μl assay buffer to obtained 2 μM compound and 2% DMSO.
For the IC50 determinations, test compounds were tested at 6 concentrations in duplicate (concentration range depends on % inhibition binding that was obtained in the Primary Screen). Test compounds were diluted from 10 mM stock in 100% DMSO. The tested solutions were prepared at 2× final assay concentration in 2% DMSO/assay buffer.
All reagents and the assay plate were kept on ice during the addition of reagents. […] After the additions, the incubation mixture was mixed and incubated for 2.5 hrs at 4° C.
After 2.5 hrs incubation, unbound counts were removed with dextran coated charcoal (DCC) as follows: 25 μl of DCC solution (10% DCC in assay buffer) was added to all wells and mixed (total volume 225 μl). The plate was centrifuged at 4000 rpm for 10 minutes at 4° C. 75 μl of the supernatants (i.e.⅓ of total volume) was carefully pipetted into an optiplate. 200 μl of scintillation cocktail were added (Microscint-40, Packard Bioscience. B.V.). The plate was vigorously shaken for approx. 10 minutes and counted on Topcount.
The IC50 values were converted to Ki (the inhibition constant) using the Cheng-Prusoff equation. Test results are presented in Tablel.
Reagents: Assay buffer: 10 mM potassium phosphate buffer pH 7.6 containing 5 mM DTT, 10 mM sodium molybdate, 100 μM EDTA and 0.1% BSA.

For `CCOC[C@]12Cc3cnn(-c4ccc(F)cc4)c3C=C1CCN(S(=O)(=O)c1ccc(N3CCOCC3)nc1)C2` [Example 1, (R)-4a-Ethoxymethyl-1-(4-fluorophenyl)-6-[[6-(4-morpholinyl)-3-pyridinyl]sulfonyl]-1,4,7,8-tetrahydro-1,2,6-triazacyclopenta[b]naphthalene], the Ki [1] was < 10 nM and the Ki [2] was < 0.5 nM.
With `COC(=O)[C@]12Cc3cnn(-c4ccc(F)cc4)c3C=C1CCN(S(=O)(=O)c1ccc(N3CCOCC3)nc1)C2` [Example 1c, (R)-1-(4-Fluorophenyl)-6-(6-morpholin-4-ylpyridine-3-sulfonyl)-1,4,5,6,7,8-hexahydro-1,2,6-triazacyclopenta[b]naphthalene-4a-carboxylic acid methyl ester] the Ki [1] was > 50 nM and the Ki [2] was > 1 nM.
`O=S(=O)(c1ccc(N2CCOCC2)nc1)N1CCC2=Cc3c(cnn3-c3ccc(F)cc3)C[C@]2(CO)C1` [Example 1d, [(R)-1-(4-Fluorophenyl)-6-[[6-(4-morpholinyl)-3-pyridinyl]sulfonyl]-1,4,7,8-tetrahydro-1,2,6-triazacyclopenta[b]naphthalen-4a-yl]methanol] was tested, and the Ki [1] was > 50 nM and the Ki [2] was > 1 nM.
Work on `CCOC[C@]12Cc3cnn(-c4ccc(F)cc4)c3C=C1CCN(S(=O)(=O)c1cccnc1)C2` [Example 2, (R)-4a-Ethoxymethyl-1-(4-fluorophenyl)-6-[[3-pyridinyl]sulfonyl]-1,4,7,8-tetrahydro-1,2,6-triazacyclopenta[b]naphthalene] yielded a Ki [1] of 10 to 50 nM and a Ki [2] of 0.5 to 1 nM.
With `CCOC[C@]12Cc3cnn(-c4ccc(F)cc4)c3C=C1CCN(S(=O)(=O)c1cnc3c(c1)OCCN3C)C2` [Example 3] the Ki [1] was 10 to 50 nM and the Ki [2] was < 0.5 nM.
`CCOC[C@]12Cc3cnn(-c4ccc(F)cc4)c3C=C1CCN(S(=O)(=O)c1ccc(N3CCCC3)nc1)C2` [Example 4, (R)-4a-Ethoxymethyl-1-(4-fluorophenyl)-6-[[6-(1-pyrrolidinyl)-3-pyridinyl]sulfonyl]-1,4,7,8-tetrahydro-1,2,6-triazacyclopenta[b]naphthalene] was tested, and the Ki [1] was 10 to 50 nM and the Ki [2] was > 1 nM.
In the case of `COC[C@]12Cc3cnn(-c4ccc(F)cc4)c3C=C1CCN(S(=O)(=O)c1ccc(N3CCCC3)nc1)C2` [Example 5, (R)-1-(4-Fluorophenyl)-4a-methoxymethyl-6-[[6-(1-pyrrolidinyl)-3-pyridinyl]sulfonyl]-1,4,7,8-tetrahydro-1,2,6-triazacyclopenta[b]naphthalene], the Ki [1] is reported as 10 to 50 nM and the Ki [2] is reported as 0.5 to 1 nM.
For `CCOC[C@]12Cc3cnn(-c4ccc(F)cc4)c3C=C1CCN(S(=O)(=O)c1ccc(N3CCC3)nc1)C2` [Example 6, (R)-6-[[6-(1-Azetidinyl)-3-pyridinyl]sulfonyl]-4a-ethoxymethyl-1-(4-fluorophenyl)-1,4,7,8-tetrahydro-1,2,6-triazacyclopenta[b]naphthalene], the Ki [1] was 10 to 50 nM and the Ki [2] was 0.5 to 1 nM.
With `CCOC[C@]12Cc3cnn(-c4ccc(F)cc4)c3C=C1CCN(S(=O)(=O)c1ccc(NC)nc1)C2` [Example 7, (R)-4a-Ethoxymethyl-1-(4-fluorophenyl)-6-[[6-methylamino-3-pyridinyl]sulfonyl]-1,4,7,8-tetrahydro-1,2,6-triazacyclopenta[b]naphthalene] the Ki [1] was 10 to 50 nM and the Ki [2] was < 0.5 nM.
`CCOC[C@]12Cc3cnn(-c4ccc(F)cc4)c3C=C1CCN(S(=O)(=O)c1ccc(N(C)C)nc1)C2` [Example 8, (R)-6-[[6-Dimethylamino-3-pyridinyl]sulfonyl]-4a-ethoxymethyl-1-(4-fluorophenyl)-1,4,7,8-tetrahydro-1,2,6-triazacyclopenta[b]naphthalene] was tested, and the Ki [1] was < 10 nM and the Ki [2] was < 0.5 nM.
`CNc1ccc(S(=O)(=O)N2CCC3=Cc4c(cnn4-c4ccc(F)cc4)C[C@]3(COC)C2)cn1` [Example 9, (R)-1-(4-Fluorophenyl)-4a-methoxymethyl-6-[[6-methylamino-3-pyridinyl]sulfonyl]-1,4,7,8-tetrahydro-1,2,6-triazacyclopenta[b]naphthalene] was tested, and the Ki [1] was > 50 nM and the Ki [2] was > 1 nM.
In the case of `COC[C@]12Cc3cnn(-c4ccc(F)cc4)c3C=C1CCN(S(=O)(=O)c1ccc(N(C)C)nc1)C2` [Example 10, (R)-6-[[6-Dimethylamino-3-pyridinyl]sulfonyl]-1-(4-fluorophenyl)-4a-methoxymethyl-1,4,7,8-tetrahydro-1,2,6-triazacyclopenta[b]naphthalene], the Ki [1] is reported as 10 to 50 nM and the Ki [2] is reported as 0.5 to 1 nM.
Molecule `COC[C@]12Cc3cnn(-c4ccc(F)cc4)c3C=C1CCN(S(=O)(=O)c1ccc(N3CCC3)nc1)C2` [Example 11, (R)-6-[[6-(1-Azetidinyl)-3-pyridinyl]sulfonyl]-1-(4-fluorophenyl)-4a-methoxymethyl-1,4,7,8-tetrahydro-1,2,6-triazacyclopenta[b]naphthalene] has a Ki [1] of 10 to 50 nM and a Ki [2] of 0.5 to 1 nM.
`COC[C@]12Cc3cnn(-c4ccc(F)cc4)c3C=C1CCN(S(=O)(=O)c1cncc(N3CCOCC3)c1)C2` [Example 12, (R)-1-(4-Fluorophenyl)-4a-methoxymethyl-6-(5-morpholin-4-ylpyridine-3-sulfonyl)-4,4a,5,6,7,8-hexahydro-1H-1,2,6-triazacyclopenta[b]naphthalene] was tested, and the Ki [1] was > 50 nM and the Ki [2] was > 1 nM.
In the case of `COC[C@]12Cc3cnn(-c4ccc(F)cc4)c3C=C1CCN(S(=O)(=O)c1cncc(N3CCC3)c1)C2` [Example 13, (R)-6-(5-Azetidin-1-ylpyridine-3-sulfonyl)-1-(4-fluorophenyl)-4a-methoxymethyl-4,4a,5,6,7,8-hexahydro-1H-1,2,6-triazacyclopenta[b]naphthalene], the Ki [1] is reported as 10 to 50 nM and the Ki [2] is reported as < 0.5 nM.
Work on `COC[C@]12Cc3cnn(-c4ccc(F)cc4)c3C=C1CCN(S(=O)(=O)c1ccc(N3CCOCC3)nc1)C2` [Example 14, (R)-1-(4-Fluorophenyl)-4a-methoxymethyl-6-(6-morpholin-4-yl-pyridine-3-sulfonyl)-4,4a,5,6,7,8-hexahydro-1H-1,2,6-triazacyclopenta[b]naphthalene] yielded a Ki [1] of 10 to 50 nM and a Ki [2] of 0.5 to 1 nM.
`O=S(=O)(c1ccc(N2CCOCC2)nc1)N1CCC2=Cc3c(cnn3-c3ccc(F)cc3)C[C@]2(COC(F)F)C1` [Example 15, (R)-4a-Difluoromethoxymethyl-1-(4-fluorophenyl)-6-(6-morpholin-4-yl-pyridine-3-sulfonyl)-4,4a,5,6,7,8-hexahydro-1H-1,2,6-triazacyclopenta[b]naphthalene] was tested, and the Ki [1] was 10 to 50 nM and the Ki [2] was > 1 nM.
In the case of `O=S(=O)(c1ccc(N2CCC2)nc1)N1CCC2=Cc3c(cnn3-c3ccc(F)cc3)C[C@]2(COC(F)F)C1` [Example 17, (R)-6-(6-Azetidin-1-ylpyridine-3-sulfonyl)-4a-difluoromethoxymethyl-1-(4-fluorophenyl)-4,4a,5,6,7,8-hexahydro-1H-1,2,6-triazacyclopenta[b]naphthalene], the Ki [1] is reported as 10 to 50 nM and the Ki [2] is reported as > 1 nM.
For `O=S(=O)(c1ccc(N2CC[C@@H](O)C2)nc1)N1CCC2=Cc3c(cnn3-c3ccc(F)cc3)C[C@]2(CN2CC[C@H](O)C2)C1` [Example 46, (S)-1-{(S)-1-(4-Fluorophenyl)-6-[6-((R)-3-hydroxy-pyrrolidin-3-ol)-pyridine-3-sulfonyl]-1,4,5,6,7,8-hexahydro-1,2,6-triaza-cyclopenta[b]naphthalene-4a-ylmethyl}-pyrrolidin-3-ol], the Ki [2] was > 1 nM.
